# Like-named read-outs stand apart in the source and are kept apart here.
# Experiments:
# Assay in all cases: Anti-bacterial test, minimum inhibitory concentration on agar
# Type in all cases: cell-based
# [1] = tested on: Proteus mirabilis IFO 3849
# Excerpt: (§1) The compound (I) thus obtained is useful as a drug, being active against certain gram-positive and gram-negative bacteria. By way of example, the compounds are active against the following micro-organisms.
# (§2) The media and compounds employed in the anti-bacterial test are as follows: • Media: • TSA = Trypticase soy agar • [Baltimore Biologicals (U.S.A.)] • B-TSA = Blood trypticase soy agar • Compounds: • Compound A = Sodium 3-[2-(2-amino-4-thiazolyl)-2-methoxyiminoacetamido]-2-oxo-azetidine-1-sulphonate • Compound B = Sodium 3-[D(-)-N-(4-ethyl-2,3-dioxo-1-piperazinocarbonyl)-phenyl-glycin- amido]-2-oxoazetidine-1-sulphonate • Compound C = Sodium 3-[D(-)-N-(4-ethyl-2,3-dioxo-1-piperazinocarbonyl)phenylglycinamido]-3-methoxy-2-oxoazetidine-1-sulphonate • Compound D = Sodium 3-[2-(4-ethyl-2,3-dioxo-1-piperazinocarboxamido)-2-(2-amino-4-thiazolyl)-acetamido]-2-oxoazetidine-1-sulphonate • Compound E = Sodium 3-[DL-2-(4-ethyl-2,3-dioxo-1-piperazinocarboxamido)-2-thienylacetamido]-2-oxoazetidine-1-sulphonate • Compound F = Sodium 3-[D-2-(4-ethyl-2,3-dioxo-1-piperazinocarboxamido)-2-thienylacetamido]-2-oxoazetidine-1-sulphonate • Compound G = Sodium 3-[D-2-(4-n-octyl-2,3-dioxo-1-piperazinocarboxamido)-2-phenylacetamido]-2-oxoazetidine-1-sulphonate • Compound H = Sodium 3-[2-(4-n-octyl-2,3-dioxo-1-piperazinocarboxamido)-2-(2-amino-4-thiazolyl)-acetamido]-2-oxoazetidine-1-sulphonate • Compound I = Sodium 3-[D-2-[(2-oxo-3-furfurylideneaminoimidazolidin-1-yl)-carboxamido]-2-phenylacetamido]-2-oxoazetidine-1-sulphonate • Compound J = Sodium 3-[2-(4-n-octyl-2,3-dioxo-1-piperazinocarboxamido)-2-thienylacetamido]-2-oxoazetidine-1-sulphonate • Compound K = Sodium 3-[D-2-[[2-oxo-3-(thiophen-2-aidoimino)-imidazolidin-1-yl]-carboxamido]-2-phenylacetamido]-2-oxoazetidine-1-sulphonate • Compound L = Sodium 3-[2-[(2-oxo-3-furfurylideneaminoimidazolidin-1-yl)-carboxamido]-2-thienylacetamido]-2-oxoazetidine-1-sulphonate
# [2] = tested on: Staphylococcus aureus 1840
# Excerpt: as §1, §2
# Klebsiella pneumoniae DT = conditions: for MIC: read-out: Minimum inhibitory concentration
# Excerpt: as §1, §2
# [3] = tested on: Serratia marcescens IFO 12648
# Excerpt: as §1, §2
# Escherichia coli T-7 = conditions: for MIC: T7, medium TSA
# Excerpt: as §1, §2
# [4] = tested on: Bordetella bronchiseptica Sagami; conditions: for MIC: read-out: Minimum inhibitory concentration
# Excerpt: as §1, §2
# [5] = tested on: Escherichia coli NIHJ JC—2; conditions: for MIC: read-out: Minimum inhibitory concentration
# Excerpt: as §1, §2
# Escherichia coli O—111 = conditions: medium TSA
# Excerpt: as §1, §2
# [6] = tested on: Citrobacter freundii IFO 12681
# Excerpt: as §1, §2
# [7] = tested on: Streptococcus pyogenes E—14; conditions: for MIC: read-out: Minimum inhibitory concentration
# Excerpt: as §1, §2
# [8] = tested on: Proteus vulgaris IFO 3988
# Excerpt: as §1, §2
# [9] = tested on: Streptococcus mitis America; conditions: for MIC: read-out: Minimum inhibitory concentration
# Excerpt: as §1, §2
# [10] = tested on: Pseudomonas aeruginosa IFO 3455
# Excerpt: as §1, §2
# [11] = tested on: Streptococcus pneumoniae Type I; conditions: for MIC: read-out: Minimum inhibitory concentration
# Excerpt: as §1, §2
# [12] = tested on: Staphylococcus aureus FDA209P; conditions: for MIC: Staphylococcus aureus, FDA209P, read-out: Minimum inhibitory concentration
# Excerpt: as §1, §2
# [13] = tested on: Enterobacter cloacae IFO 12937
# Excerpt: as §1, §2
# [14] = tested on: Streptococcus pyogenes S—8; conditions: for MIC: read-out: Minimum inhibitory concentration
# Excerpt: as §1, §2
# Candida albicans TA = conditions: for MIC: read-out: Minimum inhibitory concentration
# Excerpt: as §1, §2
# [15] = tested on: Streptococcus faecium IFO 3128; conditions: for MIC: Enterococcus faecium
# Excerpt: as §1, §2
# [16] = tested on: Corynebacterium diphtheriae Toronto; conditions: for MIC: read-out: Minimum inhibitory concentration
# Excerpt: as §1, §2
# [17] = tested on: Proteus morganii IFO 3168; conditions: for MIC: Morganella morganii
# Excerpt: as §1, §2
# [18] = tested on: Pseudomonas aeruginosa U 31
# Excerpt: as §1, §2
# [19] = tested on: Staphylococcus aureus 308A—1; conditions: for MIC: read-out: Minimum inhibitory concentration
# Excerpt: as §1, §2
# [20] = tested on: Acinetobacter calcoaceticus IFO 13006
# Excerpt: as §1, §2
# [21] = Klebsiella pneumoniae DT, medium TSA
# [22] = Bordetella bronchiseptica Sagami, medium B—TSA
# [23] = Escherichia coli NIHJ JC—2, medium TSA
# [24] = Streptococcus pyogenes E—14, medium B—TSA
# [25] = Streptococcus mitis America, medium B—TSA
# [26] = Streptococcus pneumoniae Type I, medium B—TSA
# [27] = Staphylococcus aureus FDA209P, medium B—TSA
# [28] = Staphylococcus aureus FDA209P, medium TSA
# [29] = Streptococcus pyogenes S—8, medium B—TSA
# [30] = Candida albicans TA, medium TSA
# [31] = Corynebacterium diphtheriae Toronto, medium B—TSA
# [32] = Staphylococcus aureus 308A—1, medium TSA
compound,measurement,setting,value
"O=C(NC1CN(S(=O)(=O)O)C1=O)[C@H](NC(=O)N1CCN(N=Cc2cccs2)C1=O)c1ccccc1 (stereo partly drawn) [Compound K, Sodium 3-[D-2-[[2-oxo-3-(thiophen-2-aidoimino)-imidazolidin-1-yl]-carboxamido]-2-phenylacetamido]-2-oxoazetidine-1-sulphonate]",MIC,"[1]; IFO3849, Proteus mirabilis IFO 3849, medium TSA, read-out: Minimum inhibitory concentration",1.56 µg/mL
same,MIC,"[2]; Staphylococcus aureus 1840, medium TSA, read-out: Minimum inhibitory concentration",50 µg/mL
same,MIC,Klebsiella pneumoniae DT; [21],0.39 µg/mL
same,MIC,"[3]; IFO12648, Serratia marcescens IFO 12648, medium TSA, read-out: Minimum inhibitory concentration",1.56 µg/mL
same,MIC,Escherichia coli T-7,> 100 µg/mL
same,MIC,[4]; [22],> 100 µg/mL
same,MIC,[5]; [23],1.56 µg/mL
same,MIC,Escherichia coli O—111,0.39 µg/mL
same,MIC,"[6]; IFO12681, Citrobacter freundii IFO 12681, medium TSA, read-out: Minimum inhibitory concentration",1.56 µg/mL
same,MIC,[7]; [24],0.78 µg/mL
same,MIC,"[8]; IFO3988, Proteus vulgaris IFO 3988, medium TSA, read-out: Minimum inhibitory concentration",0.39 µg/mL
same,MIC,[9]; [25],1.56 µg/mL
same,MIC,"[10]; IFO3455, Pseudomonas aeruginosa IFO 3455, medium TSA, read-out: Minimum inhibitory concentration",3.13 µg/mL
same,MIC,[11]; [26],1.56 µg/mL
same,MIC,[12]; [27],6.25 µg/mL
same,MIC,[12]; [28],6.25 µg/mL
same,MIC,"[13]; IFO12937, Enterobacter cloacae IFO 12937, medium TSA, read-out: Minimum inhibitory concentration",12.5 µg/mL
same,MIC,[14]; [29],1.56 µg/mL
same,MIC,Candida albicans TA; [30],> 100 µg/mL
same,MIC,"[15]; IFO3128, Streptococcus faecium IFO 3128, medium B—TSA, read-out: Minimum inhibitory concentration",> 100 µg/mL
same,MIC,[16]; [31],3.13 µg/mL
same,MIC,"[17]; IFO3168, Proteus morganii IFO 3168, medium TSA, read-out: Minimum inhibitory concentration",12.5 µg/mL
same,MIC,"[18]; U31, Pseudomonas aeruginosa U 31, medium TSA, read-out: Minimum inhibitory concentration",> 100 µg/mL
same,MIC,[19]; [32],3.13 µg/mL
same,MIC,"[20]; IFO13006, Acinetobacter calcoaceticus IFO 13006, medium TSA, read-out: Minimum inhibitory concentration",50 µg/mL
"CON=C(C(=O)NC1CN(S(=O)(=O)[O-])C1=O)c1csc(N)n1.[Na+] (stereo not drawn) [Compound A, Sodium 3-[2-(2-amino-4-thiazolyl)-2-methoxyiminoacetamido]-2-oxo-azetidine-1-sulphonate]",MIC,"[1]; Proteus mirabilis, IFO3849, read-out: Minimum inhibitory concentration",6.25 µg/mL
same,MIC,"[2]; Staphylococcus aureus, 1840, read-out: Minimum inhibitory concentration",100 µg/mL
same,MIC,Klebsiella pneumoniae DT; Klebsiella pneumoniae,0.78 µg/mL
same,MIC,"[3]; Serratia marcescens, IFO12648, read-out: Minimum inhibitory concentration",12.5 µg/mL
same,MIC,Escherichia coli T-7,> 100 µg/mL
same,MIC,[4]; Bordetella bronchiseptica,100 µg/mL
same,MIC,[5]; Escherichia coli,0.78 µg/mL
same,MIC,Escherichia coli O—111,0.39 µg/mL
same,MIC,"[6]; Citrobacter freundii, IFO12681, read-out: Minimum inhibitory concentration",1.56 µg/mL
same,MIC,[7]; Streptococcus pyogenes,3.13 µg/mL
same,MIC,"[8]; Proteus vulgaris, IFO3988, read-out: Minimum inhibitory concentration",1.56 µg/mL
same,MIC,[9]; Streptococcus mitis,25 µg/mL
same,MIC,"[10]; Pseudomonas aeruginosa, IFO3455, read-out: Minimum inhibitory concentration",6.25 µg/mL
same,MIC,[11]; Streptococcus pneumoniae,12.5 µg/mL
same,Minimum inhibitory concentration,[12]; [27],50 µg/mL
same,MIC,[12],50 µg/mL
same,MIC,"[13]; Enterobacter cloacae, IFO12937, read-out: Minimum inhibitory concentration",> 100 µg/mL
same,MIC,[14]; Streptococcus pyogenes,3.13 µg/mL
same,MIC,Candida albicans TA; Candida albicans,> 100 µg/mL
same,MIC,"[15]; IFO3128, read-out: Minimum inhibitory concentration",> 100 µg/mL
same,MIC,[16]; Corynebacterium diphtheriae,1.56 µg/mL
same,MIC,"[17]; IFO3168, read-out: Minimum inhibitory concentration",25 µg/mL
same,MIC,"[18]; Pseudomonas aeruginosa, U31, read-out: Minimum inhibitory concentration",> 100 µg/mL
same,MIC,[19]; Staphylococcus aureus,25 µg/mL
same,MIC,"[20]; Acinetobacter calcoaceticus, IFO13006, read-out: Minimum inhibitory concentration",6.25 µg/mL
"O=C(NC1CN(S(=O)(=O)[O-])C1=O)C(NC(=O)N1CCN(N=Cc2ccco2)C1=O)c1cccs1.[Na+] (stereo not drawn) [Compound L, Sodium 3-[2-[(2-oxo-3-furfurylideneaminoimidazolidin-1-yl)-carboxamido]-2-thienylacetamido]-2-oxoazetidine-1-sulphonate]",Minimum inhibitory concentration,"[1]; Proteus mirabilis IFO 3849, medium TSA",0.78 µg/mL
same,Minimum inhibitory concentration,"[2]; Staphylococcus aureus 1840, medium TSA",25 µg/mL
same,Minimum inhibitory concentration,Klebsiella pneumoniae DT; [21],<0.1 µg/mL
same,Minimum inhibitory concentration,"[3]; Serratia marcescens IFO 12648, medium TSA",1.56 µg/mL
same,Minimum inhibitory concentration,Escherichia coli T-7; medium TSA,>100 µg/mL
same,Minimum inhibitory concentration,[4]; [22],>100 µg/mL
same,Minimum inhibitory concentration,[5]; [23],1.56 µg/mL
same,Minimum inhibitory concentration,Escherichia coli O—111,<0.1 µg/mL
same,Minimum inhibitory concentration,"[6]; Citrobacter freundii IFO 12681, medium TSA",1.56 µg/mL
same,Minimum inhibitory concentration,[7]; [24],0.78 µg/mL
same,Minimum inhibitory concentration,"[8]; Proteus vulgaris IFO 3988, medium TSA",0.2 µg/mL
same,Minimum inhibitory concentration,[9]; [25],6.25 µg/mL
same,Minimum inhibitory concentration,"[10]; Pseudomonas aeruginosa IFO 3455, medium TSA",3.13 µg/mL
same,Minimum inhibitory concentration,[11]; [26],1.56 µg/mL
same,Minimum inhibitory concentration,[12]; [27],6.25 µg/mL
same,Minimum inhibitory concentration,[12]; [28],6.25 µg/mL
same,Minimum inhibitory concentration,"[13]; Enterobacter cloacae IFO 12937, medium TSA",25 µg/mL
same,Minimum inhibitory concentration,[14]; [29],0.78 µg/mL
same,Minimum inhibitory concentration,Candida albicans TA; [30],>100 µg/mL
same,Minimum inhibitory concentration,"[15]; Streptococcus faecium IFO 3128, medium B—TSA",>100 µg/mL
same,Minimum inhibitory concentration,[16]; [31],1.56 µg/mL
same,Minimum inhibitory concentration,"[17]; Proteus morganii IFO 3168, medium TSA",12.5 µg/mL
same,Minimum inhibitory concentration,"[18]; Pseudomonas aeruginosa U 31, medium TSA",>100 µg/mL
same,Minimum inhibitory concentration,[19]; [32],3.13 µg/mL
same,Minimum inhibitory concentration,"[20]; Acinetobacter calcoaceticus IFO 13006, medium TSA",50 µg/mL

# Source: patent EP0021678B1, “1-Sulpho-2-oxoazetidine derivatives, their production and pharmaceutical compositions thereof” (Takeda Chemical Industries, Ltd., priority 1979, dated 1981)
